PubChem BioAssay AID1963958 (Molecular Pharmacology Branch, DTP, NCI, 2024)

System: MDA-MB-231 multicell spheroids, viability
Test: Anticancer human tumor MDA-MB-231 cell line growth inhibition [PI3K];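 also: spheroids exposed to agents for seven days before reading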;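 as to viability, T/C: percent of vehicle control luminescence with DMSO treated spheroids as 100%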
Conditions: for IC50: curve of first compound; for viability, T/C: stronger effect = lower value
Procedure, shortened: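 Stroma-containing spheroids: tumor line, pooled-donor HUVEC, hMSC. Treatments: targeted agents with PI3K inhibitors. Dosing: clinically relevant, half-log spacing, 10 microM ceiling without known Cmax. Read-out: cell viability.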

Q: Which IC50 (second compound 0.0316 µM) does the source give for `CC(C)n1nc(-c2ccc3oc(N)nc3c2)c2c(N)ncnc21` + Cc1nc(NC(=O)N2CCCC2C(N)=O)sc1-c1ccnc(C(C)(C)C(F)(F)F)c1 here?
A: 42.2 nM

Q: What about the IC50 (second compound 0.1 µM) of the same molecule?
A: 25.3 nM

Q: What about the IC50 (second compound 0.316 µM) of the same molecule?
A: 10.9 nM

Q: What about the IC50 (second compound 1 µM) of the same molecule?
A: 6.29 nM

Q: What about the IC50 (second compound 3.16 µM) of the same molecule?
A: 4.81 nM

Q: And the IC50 (second compound 10 µM)?
A: 3.17 nM

Q: And the viability, T/C (second compound 0.0316 µM, first compound 0.000316 µM)?
A: 94%

Q: And the viability, T/C (second compound 0.0316 µM, first compound 0.001 µM)?
A: 85.8%

Q: And the viability, T/C (second compound 0.0316 µM, first compound 0.00316 µM)?
A: 80.9%

Q: What about the viability, T/C (second compound 0.0316 µM, first compound 0.01 µM) of the same molecule?
A: 69.3%

Q: What about the viability, T/C (second compound 0.0316 µM, first compound 0.0316 µM) of the same molecule?
A: 55.3%

Q: And the viability, T/C (second compound 0.0316 µM, first compound 0.1 µM)?
A: 35.2%

Q: And the viability, T/C (second compound 0.1 µM, first compound 0.000316 µM)?
A: 85.7%

Q: And the viability, T/C (second compound 0.1 µM, first compound 0.001 µM)?
A: 85.7%

Q: And the viability, T/C (second compound 0.1 µM, first compound 0.00316 µM)?
A: 71.2%

Q: And the viability, T/C (second compound 0.1 µM, first compound 0.01 µM)?
A: 65.2%

Q: What about the viability, T/C (second compound 0.1 µM, first compound 0.0316 µM) of the same molecule?
A: 45.9%

Q: What about the viability, T/C (second compound 0.1 µM, first compound 0.1 µM) of the same molecule?
A: 31.3%

Q: What about the viability, T/C (second compound 0.316 µM, first compound 0.000316 µM) of the same molecule?
A: 73%

Q: What about the viability, T/C (second compound 0.316 µM, first compound 0.001 µM) of the same molecule?
A: 72%

Q: And the viability, T/C (second compound 0.316 µM, first compound 0.00316 µM)?
A: 60.2%

Q: What about the viability, T/C (second compound 0.316 µM, first compound 0.01 µM) of the same molecule?
A: 50.6%

Q: And the viability, T/C (second compound 0.316 µM, first compound 0.0316 µM)?
A: 39.6%

Q: What about the viability, T/C (second compound 0.316 µM, first compound 0.1 µM) of the same molecule?
A: 27.7%

Q: And the viability, T/C (second compound 1 µM, first compound 0.000316 µM)?
A: 68.3%

Q: What about the viability, T/C (second compound 1 µM, first compound 0.001 µM) of the same molecule?
A: 58%

Q: And the viability, T/C (second compound 1 µM, first compound 0.00316 µM)?
A: 55.5%

Q: What about the viability, T/C (second compound 1 µM, first compound 0.01 µM) of the same molecule?
A: 49.1%

Q: And the viability, T/C (second compound 1 µM, first compound 0.0316 µM)?
A: 35%

Q: What about the viability, T/C (second compound 1 µM, first compound 0.1 µM) of the same molecule?
A: 23.6%

Q: What about the viability, T/C (second compound 3.16 µM, first compound 0.000316 µM) of the same molecule?
A: 66.4%

Q: What about the viability, T/C (second compound 3.16 µM, first compound 0.001 µM) of the same molecule?
A: 63.2%

Q: What about the viability, T/C (second compound 3.16 µM, first compound 0.00316 µM) of the same molecule?
A: 54.1%

Q: What about the viability, T/C (second compound 3.16 µM, first compound 0.01 µM) of the same molecule?
A: 41.4%

Q: And the viability, T/C (second compound 3.16 µM, first compound 0.0316 µM)?
A: 34.8%

Q: What about the viability, T/C (second compound 3.16 µM, first compound 0.1 µM) of the same molecule?
A: 25.3%

Q: And the viability, T/C (second compound 10 µM, first compound 0.000316 µM)?
A: 62.3%

Q: What about the viability, T/C (second compound 10 µM, first compound 0.001 µM) of the same molecule?
A: 56%

Q: What about the viability, T/C (second compound 10 µM, first compound 0.00316 µM) of the same molecule?
A: 50.4%

Q: What about the viability, T/C (second compound 10 µM, first compound 0.01 µM) of the same molecule?
A: 43.9%

Q: What about the viability, T/C (second compound 10 µM, first compound 0.0316 µM) of the same molecule?
A: 33.8%

Q: And the viability, T/C (second compound 10 µM, first compound 0.1 µM)?
A: 28.5%
